Where two headings read alike, the source gives them in different places.
Experiments:
JAK2 = JAK2 (Homo sapiens (Human), UniProt O60674); settings: selectivity ratio, IC50 at 1 mM ATP; cited from earlier work
c-Mer = c-Mer (Homo sapiens (Human), UniProt Q12866); test: TAM Kinase Assay (HTRF), c-Mer; type: biochemical
Procedure: (§1) 0.1 ul test compounds dissolved in DMSO were transferred from compound plates to white 384-well assay plates (Greiner [sequence] plates). […] The plate was protected from light and incubated at room temperature for 60 min.

phosphor-Axl = phosphor-Axl (Homo sapiens (Human), UniProt P30530); test: TAM Kinase Assay (HTRF), phosphor-Axl; type: biochemical; settings: read-out: Phospho-Axl IC50;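 also: test enzyme was recombinant Axl protein, pre-activated by autophosphorylation with ATP and MgCl2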
Chain of phosphor-Axl (P30530 26-894): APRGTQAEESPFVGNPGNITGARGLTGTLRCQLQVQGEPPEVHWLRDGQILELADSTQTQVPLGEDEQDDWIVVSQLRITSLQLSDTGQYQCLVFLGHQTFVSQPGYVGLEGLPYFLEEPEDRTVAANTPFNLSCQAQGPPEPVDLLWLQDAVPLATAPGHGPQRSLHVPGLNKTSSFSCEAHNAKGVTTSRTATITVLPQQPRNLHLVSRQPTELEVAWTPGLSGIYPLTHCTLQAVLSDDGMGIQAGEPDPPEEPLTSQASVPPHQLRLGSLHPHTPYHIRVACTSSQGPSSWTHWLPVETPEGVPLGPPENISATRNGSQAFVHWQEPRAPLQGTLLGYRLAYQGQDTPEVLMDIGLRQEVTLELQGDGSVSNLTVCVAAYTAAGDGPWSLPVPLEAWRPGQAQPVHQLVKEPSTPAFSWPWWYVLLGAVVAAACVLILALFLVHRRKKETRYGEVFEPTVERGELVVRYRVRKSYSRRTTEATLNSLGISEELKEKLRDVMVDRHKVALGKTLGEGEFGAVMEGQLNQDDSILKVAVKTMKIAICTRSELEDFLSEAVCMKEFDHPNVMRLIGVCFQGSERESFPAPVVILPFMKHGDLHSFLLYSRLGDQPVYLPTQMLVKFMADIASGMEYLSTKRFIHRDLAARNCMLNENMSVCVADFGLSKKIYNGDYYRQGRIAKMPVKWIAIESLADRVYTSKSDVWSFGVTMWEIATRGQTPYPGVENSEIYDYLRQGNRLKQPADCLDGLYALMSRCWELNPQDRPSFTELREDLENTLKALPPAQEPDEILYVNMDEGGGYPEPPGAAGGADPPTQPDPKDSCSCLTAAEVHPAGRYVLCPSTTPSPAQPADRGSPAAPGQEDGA
Procedure: Autophosphorylation of Axl was carried out by incubating the recombinant Axl protein (Life Technologies, PV4275) in buffer containing 50 mM Tris, pH7.5, 0.2 mg/ml Axl, 5 mM ATP, 20 mM MgCl2 and 2 mM DTT at room temperature for 1 hour.
as §1

Tyro3 = Tyro3 (Homo sapiens (Human), UniProt Q06418); test: TAM Kinase Assay (HTRF), Tyro3; type: biochemical; settings: 0.366 nM Tyro3, HTRF, 60 min room temperature; read-out: Tyro3IC50
Chain of Tyro3 (Q06418 41-890): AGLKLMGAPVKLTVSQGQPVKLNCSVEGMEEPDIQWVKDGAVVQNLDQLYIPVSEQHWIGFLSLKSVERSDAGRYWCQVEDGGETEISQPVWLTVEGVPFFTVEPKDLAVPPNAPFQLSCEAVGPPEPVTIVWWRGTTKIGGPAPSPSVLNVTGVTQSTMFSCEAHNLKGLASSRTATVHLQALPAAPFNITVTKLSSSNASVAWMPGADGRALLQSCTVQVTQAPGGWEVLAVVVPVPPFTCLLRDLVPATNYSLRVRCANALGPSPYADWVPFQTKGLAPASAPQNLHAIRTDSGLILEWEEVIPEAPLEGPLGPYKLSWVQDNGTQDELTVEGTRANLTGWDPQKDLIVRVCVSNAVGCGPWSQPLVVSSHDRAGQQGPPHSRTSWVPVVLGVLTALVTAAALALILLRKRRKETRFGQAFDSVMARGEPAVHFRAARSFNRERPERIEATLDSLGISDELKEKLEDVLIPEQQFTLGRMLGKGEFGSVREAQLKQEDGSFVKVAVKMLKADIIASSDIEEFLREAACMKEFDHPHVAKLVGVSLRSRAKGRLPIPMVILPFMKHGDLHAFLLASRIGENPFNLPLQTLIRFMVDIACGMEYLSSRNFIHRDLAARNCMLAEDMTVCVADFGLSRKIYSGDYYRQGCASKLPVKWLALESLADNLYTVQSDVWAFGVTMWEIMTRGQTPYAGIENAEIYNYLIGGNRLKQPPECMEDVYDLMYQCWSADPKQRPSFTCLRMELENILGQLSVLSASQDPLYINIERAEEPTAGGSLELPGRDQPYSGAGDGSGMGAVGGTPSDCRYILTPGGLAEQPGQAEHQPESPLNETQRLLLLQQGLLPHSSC
Procedure: as §1

JAK1 = JAK1 (Homo sapiens (Human), UniProt P23458); settings: cited from earlier work
Chain of JAK1 (P23458 whole entry, species assumed): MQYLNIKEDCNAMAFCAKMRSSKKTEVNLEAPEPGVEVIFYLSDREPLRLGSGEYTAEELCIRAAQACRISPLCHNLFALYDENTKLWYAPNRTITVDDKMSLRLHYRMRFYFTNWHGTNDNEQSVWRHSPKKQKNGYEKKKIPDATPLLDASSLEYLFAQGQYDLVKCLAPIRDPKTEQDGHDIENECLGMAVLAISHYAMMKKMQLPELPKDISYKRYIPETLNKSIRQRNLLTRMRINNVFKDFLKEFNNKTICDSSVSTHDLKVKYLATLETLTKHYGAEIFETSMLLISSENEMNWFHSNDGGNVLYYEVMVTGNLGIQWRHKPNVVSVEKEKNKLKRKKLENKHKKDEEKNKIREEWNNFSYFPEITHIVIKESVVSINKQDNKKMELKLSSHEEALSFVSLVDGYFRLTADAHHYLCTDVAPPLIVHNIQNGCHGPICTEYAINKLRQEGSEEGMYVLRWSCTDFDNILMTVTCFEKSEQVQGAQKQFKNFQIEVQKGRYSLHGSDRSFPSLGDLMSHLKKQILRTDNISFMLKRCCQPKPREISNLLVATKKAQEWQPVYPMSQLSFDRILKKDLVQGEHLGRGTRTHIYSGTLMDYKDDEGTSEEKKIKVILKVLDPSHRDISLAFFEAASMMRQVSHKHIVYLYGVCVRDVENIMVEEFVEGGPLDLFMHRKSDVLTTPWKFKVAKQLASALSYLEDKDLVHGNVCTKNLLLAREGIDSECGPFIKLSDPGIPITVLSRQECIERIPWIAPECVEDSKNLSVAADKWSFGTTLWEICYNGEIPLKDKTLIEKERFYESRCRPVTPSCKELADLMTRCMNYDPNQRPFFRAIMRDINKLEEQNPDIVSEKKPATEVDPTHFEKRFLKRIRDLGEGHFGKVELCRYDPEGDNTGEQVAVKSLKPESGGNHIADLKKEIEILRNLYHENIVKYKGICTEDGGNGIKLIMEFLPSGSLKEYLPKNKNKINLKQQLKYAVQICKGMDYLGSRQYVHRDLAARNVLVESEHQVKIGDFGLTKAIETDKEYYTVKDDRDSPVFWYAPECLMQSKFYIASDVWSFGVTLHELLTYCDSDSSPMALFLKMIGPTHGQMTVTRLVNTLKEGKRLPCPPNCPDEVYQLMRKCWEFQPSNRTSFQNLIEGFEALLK

PI3Kδ = PI3Kδ (Homo sapiens (Human), UniProt O00329); settings: cited from earlier work
NK cells = settings: cited from earlier work
[1] = test system: tumor models with different histologies; settings: cited from earlier work
[2] = 0.0625 nM c-Mer, HTRF, 60 min room temperature, read-out: c-Mer IC50
[3] = 5.1 nM phosphor-Axl, HTRF, 60 min room temperature

Chain of JAK2 (O60674 whole entry, species assumed): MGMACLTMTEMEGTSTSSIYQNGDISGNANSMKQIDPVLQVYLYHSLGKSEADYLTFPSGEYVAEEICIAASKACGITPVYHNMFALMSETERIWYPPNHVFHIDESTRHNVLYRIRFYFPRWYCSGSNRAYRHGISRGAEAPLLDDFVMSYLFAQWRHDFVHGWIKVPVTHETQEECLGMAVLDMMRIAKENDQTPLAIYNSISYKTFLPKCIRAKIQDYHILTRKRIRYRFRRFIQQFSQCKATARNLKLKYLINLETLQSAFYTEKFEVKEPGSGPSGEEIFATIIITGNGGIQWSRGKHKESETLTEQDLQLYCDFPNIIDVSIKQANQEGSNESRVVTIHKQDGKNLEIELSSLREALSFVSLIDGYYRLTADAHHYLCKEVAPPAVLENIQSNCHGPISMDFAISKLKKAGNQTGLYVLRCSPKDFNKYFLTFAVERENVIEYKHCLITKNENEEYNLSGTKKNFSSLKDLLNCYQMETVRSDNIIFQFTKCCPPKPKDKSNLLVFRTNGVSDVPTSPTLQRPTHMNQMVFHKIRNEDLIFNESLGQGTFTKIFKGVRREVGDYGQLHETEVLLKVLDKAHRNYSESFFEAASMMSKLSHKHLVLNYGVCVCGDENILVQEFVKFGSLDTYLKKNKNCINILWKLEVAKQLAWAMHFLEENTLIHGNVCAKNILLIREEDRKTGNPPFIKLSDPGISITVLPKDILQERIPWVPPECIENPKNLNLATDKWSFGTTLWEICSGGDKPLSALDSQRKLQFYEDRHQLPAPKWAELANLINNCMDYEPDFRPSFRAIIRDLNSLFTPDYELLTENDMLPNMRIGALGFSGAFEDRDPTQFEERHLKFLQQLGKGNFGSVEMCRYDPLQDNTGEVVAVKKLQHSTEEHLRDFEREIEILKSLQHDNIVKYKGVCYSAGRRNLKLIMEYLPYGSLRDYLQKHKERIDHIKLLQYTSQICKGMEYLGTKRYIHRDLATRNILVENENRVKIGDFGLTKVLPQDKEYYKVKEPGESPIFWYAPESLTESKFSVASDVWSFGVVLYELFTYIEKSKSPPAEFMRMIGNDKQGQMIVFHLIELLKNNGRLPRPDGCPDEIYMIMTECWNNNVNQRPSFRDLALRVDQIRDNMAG

SMILES	IC50 (c-Mer; [2])	IC50 (phosphor-Axl; [3])	IC50 (Tyro3)	other results
N#CCC1(n2cc(-c3ncnc4[nH]ccc34)cn2)CN(C2CCN(C(=O)c3ccnc(C(F)(F)F)n3)CC2)C1 [Compound 9, [3-[4-(7H-pyrrolo[2,3-d]pyrimidin-4-yl)-1H-pyrazol-1-yl]-1-(1-{[2-(trifluoromethyl)pyrimidin-4-yl]carbonyl}piperidin-4-yl)azetidin-3-yl]acetonitrile, reference compound]	–	–	–	JAK2/JAK1 (JAK2): >10
NCC1(c2cncc(-c3ncnc4[nH]ccc34)c2)Cc2ccccc2C1 [Example 1, 1-{2-[5-(7H-Pyrrolo[2,3-d]pyrimidin-4-yl)pyridin-3-yl]-2,3-dihydro-1H-inden-2-yl}methanamine]	< 500 nM	< 500 nM	> 3000 nM	–
NCC1(c2cccc(-c3ncnc4[nH]ccc34)n2)Cc2ccccc2C1 [Example 2, 1-{2-[6-(7H-Pyrrolo[2,3-d]pyrimidin-4-yl)pyridin-2-yl]-2,3-dihydro-1H-inden-2-yl}methanamine]	1000 to 3000 nM	1000 to 3000 nM	> 3000 nM	–
NCC1(c2cc(-c3ncnc4[nH]ccc34)ccn2)Cc2ccccc2C1 [Example 3, 1-{2-[4-(7H-Pyrrolo[2,3-d]pyrimidin-4-yl)pyridin-2-yl]-2,3-dihydro-1H-inden-2-yl}methanamine]	< 500 nM	< 500 nM	1000 to 3000 nM	–
NCC1(c2ccnc(-c3ncnc4[nH]ccc34)c2)Cc2ccccc2C1 [Example 4, 1-{2-[2-(7H-Pyrrolo[2,3-d]pyrimidin-4-yl)pyridin-4-yl]-2,3-dihydro-1H-inden-2-yl}methanamine]	500 to 1000 nM	500 to 1000 nM	> 3000 nM	–
NCC1(c2cccc(-c3ncnc4[nH]ccc34)c2)Cc2ccncc2C1 (stereo not drawn) [Example 5, 1-{6-[3-(7H-Pyrrolo[2,3-d]pyrimidin-4-yl)phenyl]-6,7-dihydro-5H-cyclopenta[c]pyridin-6-yl}methanamine]	< 500 nM	< 500 nM	1000 to 3000 nM	–
NCC1(c2cccc(-c3ncnc4[nH]ccc34)c2)Cc2cccnc2C1 (stereo not drawn) [Example 6, 1-{6-[3-(7H-Pyrrolo[2,3-d]pyrimidin-4-yl)phenyl]-6,7-dihydro-5H-cyclopenta[b]pyridin-6-yl}methanamine]	< 500 nM	< 500 nM	> 3000 nM	–
NCC1(c2cc(-c3ncnc4[nH]ccc34)cc(Cl)n2)Cc2ccccc2C1 [Example 7, 1-{2-[6-Chloro-4-(7H-pyrrolo[2,3-d]pyrimidin-4-yl)pyridin-2-yl]-2,3-dihydro-1H-inden-2-yl}methanamine]	< 500 nM	< 500 nM	> 3000 nM	–
CC(=O)NCC1(c2cc(-c3ncnc4[nH]ccc34)ccn2)Cc2ccccc2C1 [Example 8, N-({2-[4-(7H-Pyrrolo[2,3-d]pyrimidin-4-yl)pyridin-2-yl]-2,3-dihydro-1H-inden-2-yl}methyl)acetamide]	–	1000 to 3000 nM	> 3000 nM	–
CC(=O)NCC1(c2cccc(-c3ncnc4[nH]ccc34)c2)Cc2ccncc2C1 (stereo not drawn) [Example 10, N-({6-[3-(7H-Pyrrolo[2,3-d]pyrimidin-4-yl)phenyl]-6,7-dihydro-5H-cyclopenta[c]pyridin-6-yl}methyl)acetamide]	–	1000 to 3000 nM	> 3000 nM	–
NCC1(c2cccc(-c3ncnc4[nH]ccc34)c2)Cc2ccccc2C1 [Example 11, 1-{2-[3-(7H-Pyrrolo[2,3-d]pyrimidin-4-yl)phenyl]-2,3-dihydro-1H-inden-2-yl}methanamine]	< 500 nM	< 500 nM	1000 to 3000 nM	–
OCC1(c2cccc(-c3ncnc4[nH]ccc34)c2)Cc2ccccc2C1 [Example 12, {2-[3-(7H-Pyrrolo[2,3-d]pyrimidin-4-yl)phenyl]-2,3-dihydro-1H-inden-2-yl}methanol]	< 500 nM	< 500 nM	> 3000 nM	–
CC(=O)NCC1(c2cccc(-c3ncnc4[nH]ccc34)c2)Cc2ccccc2C1 [Example 16, N-({2-[3-(7H-Pyrrolo[2,3-d]pyrimidin-4-yl)phenyl]-2,3-dihydro-1H-inden-2-yl}methyl)acetamide]	< 500 nM	< 500 nM	> 3000 nM	–
CC(C)C(=O)NCC1(c2cccc(-c3ncnc4[nH]ccc34)c2)Cc2ccccc2C1 [Example 17, 2-Methyl-N-({2-[3-(7H-pyrrolo[2,3-d]pyrimidin-4-yl)phenyl]-2,3-dihydro-1H-inden-2-yl}methyl)propanamide]	< 500 nM	< 500 nM	> 3000 nM	–
O=C(NCC1(c2cccc(-c3ncnc4[nH]ccc34)c2)Cc2ccccc2C1)C1CC1 [Example 18, N-({2-[3-(7H-Pyrrolo[2,3-d]pyrimidin-4-yl)phenyl]-2,3-dihydro-1H-inden-2-yl}methyl)cyclopropanecarboxamide]	< 500 nM	< 500 nM	> 3000 nM	–
FCC1(c2cccc(-c3ncnc4[nH]ccc34)c2)Cc2ccccc2C1 [Example 19, 4-{3-[2-(Fluoromethyl)-2,3-dihydro-1H-inden-2-yl]phenyl}-7H-pyrrolo[2,3-d]pyrimidine]	> 3000 nM	> 3000 nM	> 3000 nM	–
FC(F)C1(c2cccc(-c3ncnc4[nH]ccc34)c2)Cc2ccccc2C1 [Example 20, 4-{3-[2-(Difluoromethyl)-2,3-dihydro-1H-inden-2-yl]phenyl}-7H-pyrrolo[2,3-d]pyrimidine]	> 3000 nM	> 3000 nM	> 3000 nM	–
CS(=O)(=O)NCC1(c2cccc(-c3ncnc4[nH]ccc34)c2)Cc2ccccc2C1 [Example 21, N-({2-[3-(7H-Pyrrolo[2,3-d]pyrimidin-4-yl)phenyl]-2,3-dihydro-1H-inden-2-yl}methyl)methanesulfonamide]	1000 to 3000 nM	500 to 1000 nM	> 3000 nM	–
COC(=O)NCC1(c2cccc(-c3ncnc4[nH]ccc34)c2)Cc2ccccc2C1 [Example 22, Methyl ({2-[3-(7H-pyrrolo[2,3-d]pyrimidin-4-yl)phenyl]-2,3-dihydro-1H-inden-2-yl}methyl)carbamate]	< 500 nM	< 500 nM	> 3000 nM	–
CN(C)CC1(c2cccc(-c3ncnc4[nH]ccc34)c2)Cc2ccccc2C1 [Example 23, N,N-Dimethyl-1-{2-[3-(7H-pyrrolo[2,3-d]pyrimidin-4-yl)phenyl]-2,3-dihydro-1H-inden-2-yl}methanamine]	< 500 nM	< 500 nM	> 3000 nM	–
CNCC1(c2cccc(-c3ncnc4[nH]ccc34)c2)Cc2ccccc2C1 [Example 24, N-Methyl-1-{2-[3-(7H-pyrrolo[2,3-d]pyrimidin-4-yl)phenyl]-2,3-dihydro-1H-inden-2-yl}methanamine]	< 500 nM	< 500 nM	> 3000 nM	–
COCC1(c2cccc(-c3ncnc4[nH]ccc34)c2)Cc2ccccc2C1 [Example 25, 4-{3-[2-(Methoxymethyl)-2,3-dihydro-1H-inden-2-yl]phenyl}-7H-pyrrolo[2,3-d]pyrimidine]	> 3000 nM	1000 to 3000 nM	> 3000 nM	–
O=C(NCC1(c2cccc(-c3ncnc4[nH]ccc34)c2)Cc2ccccc2C1)C1CCC1 [Example 26, N-({2-[3-(7H-Pyrrolo[2,3-d]pyrimidin-4-yl)phenyl]-2,3-dihydro-1H-inden-2-yl}methyl)cyclobutanecarboxamide]	–	< 500 nM	> 3000 nM	IC50 (JAK1): < 10 nM; JAK2/JAK1 (JAK2): >10
O=C(NCC1(c2cccc(-c3ncnc4[nH]ccc34)c2)Cc2ccccc2C1)C1CCCC1 [Example 27, N-({2-[3-(7H-Pyrrolo[2,3-d]pyrimidin-4-yl)phenyl]-2,3-dihydro-1H-inden-2-yl}methyl)cyclopentanecarboxamide]	–	< 500 nM	> 3000 nM	–
O=C(NCC1(c2cccc(-c3ncnc4[nH]ccc34)c2)Cc2ccccc2C1)c1cccs1 [Example 28]	> 3000 nM	1000 to 3000 nM	> 3000 nM	–
O=C(NCC1(c2cccc(-c3ncnc4[nH]ccc34)c2)Cc2ccccc2C1)c1ccno1 [Example 31, N-({2-[3-(7H-Pyrrolo[2,3-d]pyrimidin-4-yl)phenyl]-2,3-dihydro-1H-inden-2-yl}methyl)isoxazole-5-carboxamide]	> 3000 nM	> 3000 nM	> 3000 nM	–
Cn1cc(C(=O)NCC2(c3cccc(-c4ncnc5[nH]ccc45)c3)Cc3ccccc3C2)cn1 [Example 33, 1-Methyl-N-({2-[3-(7H-pyrrolo[2,3-d]pyrimidin-4-yl)phenyl]-2,3-dihydro-1H-inden-2-yl}methyl)-1H-pyrazole-4-carboxamide]	–	–	> 3000 nM	IC50 (c-Mer): > 3000 nM; IC50 (phosphor-Axl): > 3000 nM
O=C(NCC1(c2cccc(-c3ncnc4[nH]ccc34)c2)Cc2ccccc2C1)c1ccco1 [Example 34, N-({2-[3-(7H-Pyrrolo[2,3-d]pyrimidin-4-yl)phenyl]-2,3-dihydro-1H-inden-2-yl}methyl)-2-furamide]	–	–	> 3000 nM	IC50 (PI3Kδ): 50 to 100 nM
CCOc1cn(-c2ccc(F)cc2C)nc1C(=O)Nc1ccc(Oc2ccnc3cc(OC)c(OC)cc23)c(F)c1 [LDC1267]	–	–	–	activation of NK cells (NK cells): activates NK cells; metastasis in tumor models [1]: blocks metastasis

Reference: US10519163B2, “Pyrrolopyrimidine derivatives as TAM inhibitors” (Incyte Corporation, priority 2015, dated 2019)
